The term IC50 denotes the midpoint of a concentration-inhibition curve.

Calls of active or inactive are those of the source. How the calls were made is not given here.

The test system of the assay is human cells, XBP1 mRNA qRT-PCR. Kind of assay: compound effect on XBP1 transcript levels – cell-based, quantitative RT-PCR, medium throughput (AID 652064).
Regarding `Cc1cc(C2=NNC(=NC3CC3)SC2)c(C)n1-c1ccccc1F`, the IC50 was 6.31 µM (inactive). In the case of `Cc1nn(C(C)(C)C)c(C)c1/C=N/OC(=O)Nc1ccc(Cl)cc1`, the IC50 was 20.1 µM (inactive). In the case of `C=CCn1c(C)cc(C2=NN=C(NCC)SC2)c1C`, the IC50 was 6.85 µM (inactive). Turning to `Cc1cc(C2=NNC(=NC3CC3)SC2)c(C)n1-c1ccccc1`, the IC50 is 4.78 µM (inactive). Take `CCN=C1NN=C(c2cc(C)n(Cc3ccco3)c2C)CS1`: the IC50 is 10.2 µM (inactive). With `CCOc1ccc(-c2nc(CSCC(=O)NCc3ccco3)c(C)o2)cc1` the figure was 7.45 µM (inactive); with `Cc1cc(C(=O)COC(=O)c2ccccc2O)c(C)n1Cc1cccs1`, 8.67 µM (inactive); with `Cc1ccc(NC(=O)c2cc3ccccc3oc2=O)cc1S(=O)(=O)N(C)C`, > 20 µM (inactive).

With `Cc1ccc(NC(=O)O/N=C/c2c(C)nn(C(C)(C)C)c2C)cc1Cl`, the IC50 was 10.1 µM (inactive).

Turning to `CC(C)(C)c1ccc(C(=O)Nc2ccc(CC(=O)O)cc2)o1`, the IC50 is > 20 µM (inactive). With `CC(C)(C)c1ccc(-c2noc(CCC(N)=O)n2)cc1`, the IC50 is > 20 µM (inactive).
